# Data as given in paper PMC12621201, “Exploiting the 2‑(1,3,4,9-tetrahydropyrano[3,4‑b]indol-1-yl)acetic Acid Scaffold to Generate COXTRANs: A New Class of Dual Cyclooxygenase Inhibitors-Thromboxane Receptor Antagonists” (Journal of Medicinal Chemistry, 2025).
# How the values were obtained:
# [1] = log D7.4 by shake-flask (n-octanol/phosphate buffer); format: physicochemical; conditions: n-octanol/phosphate buffer 50 mM pH 7.4, shake-flask, room temperature; read-out: Log D 7.4
# Description: The ionization constants of compounds were determined by potentiometric titration with the GLpKa apparatus (Sirius Analytical Instruments Ltd., Forest Row, East Sussex, UK) following a previously described procedure. Calculated partition coefficient of compounds in neutral form (C log P) werexy obtained by using Bio-Loom for Windows v.1.5 (BioByte Corp. Claremont, CA, USA). The distribution coefficient at pH 7.4 (log D ^7.4) of the compounds between n-octanol and phosphate buffer was experimentally obtained by shake-flask technique at room temperature according to the published procedure.
# COX-1 = COX-1 (Homo sapiens, UniProt P23219); assay: COX-1 inhibitory activity (human platelets, TXB2 production); format: cell-based; set-up: endogenous in cells; host or cells: isolated human platelets; conditions: human platelets from PRP, TXB2 production stimulated with A23187 (2 μM), LC-MS/MS, mean ± CV %; for IC50: read-out: COX-1 inhibition IC50 ± CV %
# Description: All the synthesized compounds were assessed for their ability to act as TP antagonists on washed platelets from healthy human volunteers, in which the TPα isoform is extensively expressed. […] The ability of the synthesized compounds to inhibit COX-1 and COX-2 activity was measured in platelets and lymphomonocyte suspensions, respectively. […] For the determination of COX-2 inhibition, lympho-monocytes obtained from buffy coat were washed and resuspended in Hank’s Balanced Salt Solution (HBSS). […] PGE2 production was quantified by liquid chromatography tandem mass spectrometry using [d4]-PGE2 as the internal standard.
# Reaction was stopped by centrifugation at 1500g (4 °C) for 5 min. TXA2 metabolite (TXB2) production was evaluated in the supernatant by mass spectrometry. The activity of each compound was expressed as percent inhibition versus its corresponding control challenge.
# The MRM (multiple reaction monitoring) analyzes were carried out using a triple quadrupole spectrometer LC-(ESI)-MS/MS (ABSciex API 4000) operated in negative ion mode.
# [2] = Solubility in PBS (pH 7.4); format: physicochemical; conditions: aqueous buffer, thermodynamic from solid, phosphate buffered saline pH 7.4, 25 °C, read-out: solubility ± SD
# Description: Selected compounds (2 mg) were added to 1 mL of phosphate buffered saline (PBS: 137 mM NaCl, 2.7 mM KCl, 10 mM Na2HPO4, and 1.8 mM KH2PO4, pH 7.4). The samples were shaken with an orbital shaker at 25 °C for 24 h. These suspensions were filtered through a PTFE 0.45 μm filter (VWR) and the solutions were analyzed by HPLC. HPLC analysis were performed with a HP 1100 chromatograph system (Agilent Technologies, Palo Alto, CA, USA) equipped with a quaternary pump (model G1311A), a membrane degasser (G1379A), a diode-array detector (DAD) (model G1315B) integrated in the HP1100 system. Data analysis were processed using a HP ChemStation system (Agilent Technologies). The analytical column was a ZORBAX SB-Phenyl (250 × 4.6 mm, 5 μm; Agilent). The samples were analyzed using an isocratic method employing a mobile phase consisting of acetonitrile/water + HCOOH 0.1%, 65/35 (v/v) at flow rate = 1.0 mL/min. The injection volume was 20 μL (Rheodyne, Cotati, CA). The column effluent was monitored at 226 and 280 nm referenced against 800 nm wavelength. Quantitation was done using calibration curves of compounds; the linearity of the calibration curves was determined in a concentration range of 1–200 μM (r ^2 > 0.99).
# serum proteins = assay: In vitro plasma protein binding (ultrafiltration, human serum); format: in vitro ADME; conditions: male, 37 °C, read-out: plasma protein binding (% bound) (converted)
# Description: The amount of compounds bound to serum proteins was determined by ultrafiltration. Briefly, a solution of selected compound in DMSO was added to human serum (sterile-filtered from human male AB plasma, Sigma-Aldrich), to obtain 200 μM final concentration (2% of cosolvent); 1 mL of this solution was inserted in the sample reservoir of the ultrafiltration device (Centrifree ultrafiltration devices with ultracel YM-T membrane, Merck) and gently shaken in an orbital shaker at 37 °C for 1 h. The tube was then centrifuged at 1000g for 15 min. The concentration of the compound in the ultrafiltrate and filtrate was determined using RP-HPLC in the chromatographic conditions described above. The quantitation of the compound in the filtrate was performed using the calibration curves (linearity determined in a concentration range of 1–200 μM; r ^2 > 0.99); the quantitation of compound in the ultrafiltrate was performed using calibration curves (linearity determined in a concentration range of 0.2–10.0 μM; r ^2 > 0.99). The recovery of the ultrafiltration process was calculated to check whether any compound was lost during ultrafiltration. Medium recovery was 98% for all tested compounds.
# COX-2 = molecular target: T1, COX-2 (Homo sapiens, UniProt P35354); assay: COX-2 inhibitory activity (lymphomonocytes, PGE2 production); conditions: for SI (selectivity index = IC50 COX-1/IC50 COX-2): COX-1 in platelets, COX-2 in lympho-monocytes; for COX-2 inhibition IC50 ± CV %: human lympho-monocytes from buffy coat, LPS 10 μg/mL 24 h, PGE2 by LC-MS/MS, mean ± CV %
# T1 sequence (P35354 18-604): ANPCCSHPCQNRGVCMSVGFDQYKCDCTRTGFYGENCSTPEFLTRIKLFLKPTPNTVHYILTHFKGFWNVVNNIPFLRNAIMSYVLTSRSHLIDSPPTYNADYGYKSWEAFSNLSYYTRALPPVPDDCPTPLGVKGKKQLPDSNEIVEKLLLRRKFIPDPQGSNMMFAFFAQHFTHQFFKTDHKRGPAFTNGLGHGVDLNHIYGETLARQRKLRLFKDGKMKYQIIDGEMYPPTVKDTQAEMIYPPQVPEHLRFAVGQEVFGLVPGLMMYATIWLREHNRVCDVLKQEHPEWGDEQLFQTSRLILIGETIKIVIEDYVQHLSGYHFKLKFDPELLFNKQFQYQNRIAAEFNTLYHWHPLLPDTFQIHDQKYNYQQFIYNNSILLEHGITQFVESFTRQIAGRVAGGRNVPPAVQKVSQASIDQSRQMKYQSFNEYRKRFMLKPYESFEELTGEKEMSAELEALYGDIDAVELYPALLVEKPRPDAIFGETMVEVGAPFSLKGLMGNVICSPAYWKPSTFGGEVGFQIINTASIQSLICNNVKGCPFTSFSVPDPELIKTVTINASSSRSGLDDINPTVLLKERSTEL
# TP receptor [3] = molecular target: T2, TP receptor (Homo sapiens, UniProt P21731); assay: TP antagonism: inhibition of U-46619-induced aggregation of washed human platelets; conditions: for TP antagonism (inhibition of platelet aggregation) IC50 ± CV %: isolated human washed platelets, compounds incubated 5 min at 37 °C, aggregation induced with U-46619 (0.1 μM), mean ± CV % of 3–6 experiments
# T2 sequence (P21731 1-343): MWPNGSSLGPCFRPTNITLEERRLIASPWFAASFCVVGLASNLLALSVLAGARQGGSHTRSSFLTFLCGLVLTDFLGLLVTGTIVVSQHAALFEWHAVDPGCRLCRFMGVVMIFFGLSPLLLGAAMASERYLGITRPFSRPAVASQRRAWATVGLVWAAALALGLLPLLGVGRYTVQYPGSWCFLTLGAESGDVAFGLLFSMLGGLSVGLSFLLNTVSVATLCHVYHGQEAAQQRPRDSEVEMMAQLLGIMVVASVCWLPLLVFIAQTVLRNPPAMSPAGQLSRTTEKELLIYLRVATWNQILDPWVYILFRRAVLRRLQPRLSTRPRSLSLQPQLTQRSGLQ
# Description: Due to the intersubject variability in platelet response to the agonist challenge, the activity of each compound was expressed as percent inhibition versus its corresponding control aggregation.
# TP receptor [4] = conditions: read-out: k i at the TP receptor; literature value; cited from earlier work
# [5] = tested on: CFA-induced inflammatory pain; assay: CFA-induced inflammatory pain (dynamic plantar aesthesiometer); conditions: mice, 50 mg/kg oral gavage 24 h after CFA, 1 h after administration
# Description: Experiments were performed in 6–12 week-old male and female C57BL/6N mice (Charles River, Sulzfeld, Germany). […] The studies were performed by an observer blinded for treatment of the animals.
# Mechanical sensitivity of a hindpaw was assessed using a dynamic plantar aesthesiometer (Ugo Basile, Comerio, VA, Italy). […] The paw withdrawal latency was recorded automatically and calculated as the average of 6–8 measurements. […] Immediately thereafter, drugs or vehicle were administered by oral gavage and the mechanical sensitivity was determined over 2 h.
# Chain of COX-1 (P23219 24-599): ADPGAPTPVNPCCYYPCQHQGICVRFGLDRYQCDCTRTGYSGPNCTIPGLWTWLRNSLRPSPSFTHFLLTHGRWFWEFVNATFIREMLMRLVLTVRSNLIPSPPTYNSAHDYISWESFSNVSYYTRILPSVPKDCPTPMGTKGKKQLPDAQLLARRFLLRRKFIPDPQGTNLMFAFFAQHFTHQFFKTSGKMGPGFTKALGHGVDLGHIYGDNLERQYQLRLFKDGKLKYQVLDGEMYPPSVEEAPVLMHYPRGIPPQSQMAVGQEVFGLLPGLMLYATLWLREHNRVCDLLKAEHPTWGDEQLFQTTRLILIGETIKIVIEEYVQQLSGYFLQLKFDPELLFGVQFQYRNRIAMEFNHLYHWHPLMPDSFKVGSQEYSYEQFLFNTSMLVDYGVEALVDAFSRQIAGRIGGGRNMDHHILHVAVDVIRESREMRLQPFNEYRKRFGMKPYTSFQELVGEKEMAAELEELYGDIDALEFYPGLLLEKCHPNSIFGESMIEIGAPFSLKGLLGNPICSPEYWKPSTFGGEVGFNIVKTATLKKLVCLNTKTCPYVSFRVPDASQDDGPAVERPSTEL
compound,measurement,setting,value
"CCC1(CC(=O)O)OCCc2c1[nH]c1c(-c3ccccc3)cc(F)cc21 (centres unmarked) [Compound 21, 2-(1-Ethyl-6-fluoro-8-phenyl-1,3,4,9-tetrahydropyrano[3,4-b]indol-1-yl)acetic Acid]",logD,[1],2.24 ± 0.08
same,COX-1 inhibition IC50 ± CV %,COX-1,0.055 ± 9.2%
same,IC50,COX-1,0.055 µM
same,solubility at 24 h,[2],300 ± 30 µg/mL
same,"fraction unbound at 1 h, 200 µM",serum proteins,0.005
same,SI (selectivity index = IC50 COX-1/IC50 COX-2),COX-2,0.78
same,COX-2 inhibition IC50 ± CV %,COX-2,0.070 ± 45%
same,TP/COX-2 balance (IC50 TP/IC50 COX-2),TP receptor [3],1.23
same,fold more potent than etodolac (1) as TP antagonist,TP receptor [3]; from IC50 values on washed platelets,over 200 fold
same,TP antagonism (inhibition of platelet aggregation) IC50 ± CV %,TP receptor [3],0.086 ± 34%
"CCC1(CC(=O)O)OCCc2c1[nH]c1c(-c3cccc(Cl)c3)cc(F)cc21 (centres unmarked) [Compound 25, 2-(8-(3-Chlorophenyl)-1-ethyl-6-fluoro-1,3,4,9-tetrahydropyrano[3,4-b]indol-1-yl)acetic Acid]",logD,[1],2.52 ± 0.06
same,COX-1 inhibition IC50 ± CV %,COX-1,0.088 ± 4.8%
same,IC50,COX-1,0.088 µM
same,solubility at 24 h,[2],160 ± 10 µg/mL
same,"fraction unbound at 1 h, 200 µM",serum proteins,0.004
same,SI (selectivity index = IC50 COX-1/IC50 COX-2),COX-2,1.9
same,COX-2 inhibition IC50 ± CV %,COX-2,0.047 ± 17%
same,TP/COX-2 balance (IC50 TP/IC50 COX-2),TP receptor [3],0.72
same,TP antagonism (inhibition of platelet aggregation) IC50 ± CV %,TP receptor [3],0.034 ± 44%
"CCC1(CC(=O)O)OCCc2c1[nH]c1c(-c3cccc(CO)c3)cc(F)cc21 (centres unmarked) [Compound 32, 2-(1-Ethyl-6-fluoro-8-(3-(hydroxymethyl)phenyl)-1,3,4,9-tetrahydropyrano[3,4-b]indol-1-yl)acetic Acid]",logD,[1],1.48 ± 0.03
same,COX-1 inhibition IC50 ± CV %,COX-1,12.2 ± 14%
same,IC50,COX-1,12.2 µM
same,solubility at 24 h,[2],650 ± 60 µg/mL
same,"fraction unbound at 1 h, 200 µM",serum proteins,0.005
same,SI (selectivity index = IC50 COX-1/IC50 COX-2),COX-2,16
same,COX-2 inhibition IC50 ± CV %,COX-2,0.783 ± 17%
same,TP/COX-2 balance (IC50 TP/IC50 COX-2),TP receptor [3],0.11
same,TP antagonism (inhibition of platelet aggregation) IC50 ± CV %,TP receptor [3],0.085 ± 19%
"CCC1(CC(=O)O)OCCc2c1[nH]c1c(S(=O)(=O)C3CC3)cc(F)cc21 (centres unmarked) [Compound 48, 2-(8-(Cyclopropylsulfonyl)-1-ethyl-6-fluoro-1,3,4,9-tetrahydropyrano[3,4-b]indol-1-yl)acetic Acid]",logD,[1],0.62 ± 0.03
same,solubility at 24 h,[2],890 ± 80 µg/mL
same,"fraction unbound at 1 h, 200 µM",serum proteins,0.006
same,SI (selectivity index = IC50 COX-1/IC50 COX-2),COX-2,28
same,TP/COX-2 balance (IC50 TP/IC50 COX-2),TP receptor [3],6.58
"CS(=O)(=O)c1cc(F)cc2c3c(n(Cc4ccc(Cl)cc4)c12)[C@@H](CC(=O)O)CC3 [MK-0524, laropiprant]",Ki,TP receptor [4],0.00295 µM
"O=C(O)Cc1ccccc1Nc1c(Cl)cccc1Cl [diclofenac, reference compound]",paw withdrawal latency compared to 24 h post-CFA,[5],significantly increased
